Source: patent publication US5856156A, “Microbial cholesterol dehydrogenase, process for its production and use” (Boehringer Mannheim GmbH, priority 1994, dated 1999)

Tested on: chol-DH
Assay: Variation of the redox mediators used, chol-DH activity by the HPLC method
Type: biochemical, Rhodococcus spec.
Design: reference not given here
Details: relative chol-DH activity with the mediator as artificial electron acceptor, 37° C., pH 7.0
Description: The enzyme sample was purified as described in example 2a) and subsequently its property of converting cholesterol was evaluated with the following methods.
An enzyme test was used to determine the chol-DH activity by quantifying the cholestenone formed in which the enzyme reaction proceeded for a defined time period before it was stopped by adding a protein-denaturing agent. Afterwards the amount of product was determined and expressed as μmol per minute and volume unit of the enzyme solution (=volume activity) or weight unit of the protein (=specific activity).
The cholestenone formed was quantified by HPLC analysis after stopping the chol-DH reaction:
One unit is the enzyme activity which oxidizes 1 μmol cholesterol per minute to cholestenone under the test conditions (37° C., pH 7.0). In this case the chol-DH activity is derived from the difference between the cholestenone concentrations of the test mixture and the blank (see above). [formula]
Apart from methyl-1,4-benzoquinone other redox mediators are suitable as electron acceptors for chol-DH. The chol-DH activity was determined by the HPLC method. Various redox mediators are listed in Table 1 that can serve as artificial electron acceptors for chol-DH.

| Structure (SMILES) | chol-DH [%] |
| --- | --- |
| O=C1C(Cl)=C(Cl)C(=O)C(Cl)=C1Cl [tetrachloro-p-benzoquinone] | 27 |
| O=Nc1ccc(N(CCO)CCO)cc1 [N,N-bis-2(hydroxyethyl)p-nitrosoaniline] | 45 |
| CC1=CC(=O)C=CC1=O [methyl-1,4-benzoquinone] | 100 |
| O=C1C(Cl)=CC(=Nc2ccc(O)cc2)C=C1Cl [2,6-dichlorophenol-indophenol] | 52 |
| O=C1C=CC(=O)C=C1 [p-benzoquinone] | 109 |
| CN(C)c1ccc(N=O)cc1 [N,N-dimethy1-4-nitrosoaniline] | 95 |
